Data on six compounds can be found in PubChem BioAssay AID1259407 (Chemical Carcinogenesis Research Information System (CCRIS), 2018).

Calls of active or inactive are those of the source. How the calls were made is not given here.

This series has as its system CCRIS mutagenicity, Ames/micronucleus/aberration tests. The experiment in a line: CCRIS mutagenicity studies.
[1] abbreviates: Test System: AMES SALMONELLA TYPHIMURIUM, Strain/Indicator: TA98, Metabolic Activation: NONE, Method: STANDARD PLATE.
[2] abbreviates: Test System: AMES SALMONELLA TYPHIMURIUM, Strain/Indicator: TA98, Metabolic Activation: RAT, LIVER, S-9, AROCLOR 1254, Method: STANDARD PLATE.
Setting [3] is: Test System: AMES SALMONELLA TYPHIMURIUM, Strain/Indicator: TA100, Metabolic Activation: NONE, Method: STANDARD PLATE.
The mark [4] stands for this setting: Test System: AMES SALMONELLA TYPHIMURIUM, Strain/Indicator: TA100, Metabolic Activation: RAT, LIVER, S-9, AROCLOR 1254, Method: STANDARD PLATE.
[5] abbreviates: Test System: AMES SALMONELLA TYPHIMURIUM, Strain/Indicator: TA1535, Metabolic Activation: RAT, LIVER, S-9, AROCLOR 1254, Method: STANDARD PLATE.
[6] abbreviates: Test System: AMES SALMONELLA TYPHIMURIUM, Strain/Indicator: TA1538, Metabolic Activation: RAT, LIVER, S-9, AROCLOR 1254, Method: STANDARD PLATE.
[7] abbreviates: Test System: CHINESE HAMSTER V-79, Strain/Indicator: V-79/6-THIOGUANINE, Metabolic Activation: NONE, Method: STANDARD PLATE.
Where [8] appears, read: Test System: AMES SALMONELLA TYPHIMURIUM, Strain/Indicator: TA98, Metabolic Activation: NONE, Method: PREINCUBATION

For `C[C@]12C=CC3=C4CCC(=O)C=C4CC[C@H]3[C@@H]1CC[C@@H]2O`, the mutagenic call is, setting by setting: under setting [1], “inactive; negative”; (Test System: AMES SALMONELLA TYPHIMURIUM, Strain/Indicator: TA98, Metabolic Activation: RAT, LIVER, S-9, AROCLOR 1254 (5%, 30%), Method: PREINCUBATION) “inactive; negative”; under setting [2], “inactive; negative”; (Test System: AMES SALMONELLA TYPHIMURIUM, Strain/Indicator: TA98, Metabolic Activation: RAT, LIVER, S-9, Method: STANDARD PLATE) “inactive; negative; toxicity at 3000 ug/plate”; under setting [3], “inactive; negative”; (Test System: AMES SALMONELLA TYPHIMURIUM, Strain/Indicator: TA100, Metabolic Activation: RAT, LIVER, S-9, AROCLOR 1254 (5%, 30%), Method: PREINCUBATION) “inactive; negative”. Besides, the mutagenic call under setting [4] is “inactive; negative”; the mutagenic call (Test System: AMES SALMONELLA TYPHIMURIUM, Strain/Indicator: TA100, Metabolic Activation: RAT, LIVER, S-9, Method: STANDARD PLATE) is “inactive; negative”; the mutagenic call (Test System: AMES SALMONELLA TYPHIMURIUM, Strain/Indicator: TA102, Metabolic Activation: RAT, LIVER, S-9, AROCLOR 1254 (5%, 30%), Method: PREINCUBATION) was “inactive; negative”; the mutagenic call under setting [5] was “inactive; negative”; the mutagenic call (Test System: AMES SALMONELLA TYPHIMURIUM, Strain/Indicator: TA1535, Metabolic Activation: RAT, LIVER, S-9, Method: STANDARD PLATE) is “inactive; negative”; the mutagenic call (Test System: AMES SALMONELLA TYPHIMURIUM, Strain/Indicator: TA1537, Metabolic Activation: RAT, LIVER, S-9, AROCLOR 1254, Method: STANDARD PLATE) was “inactive; negative”. For the same compound, the mutagenic call is “inactive; negative” (Test System: AMES SALMONELLA TYPHIMURIUM, Strain/Indicator: TA1537, Metabolic Activation: RAT, LIVER, S-9, Method: STANDARD PLATE); “inactive; negative” under setting [6]; “inactive; negative” (Test System: AMES SALMONELLA TYPHIMURIUM, Strain/Indicator: TA1538, Metabolic Activation: RAT, LIVER, S-9, Method: STANDARD PLATE); “inactive; negative” under setting [7]; “inactive; negative” (Test System: CHINESE HAMSTER V-79, Strain/Indicator: V-79/6-THIOGUANINE, Metabolic Activation: RAT, LIVER, S-9, AROCLOR 1254, Method: STANDARD PLATE); “inactive; negative” (Test System: CHO/HGPRT, Strain/Indicator: CHO-K1-BH4, Metabolic Activation: NONE, Method: STANDARD PLATE). Besides, the mutagenic call (Test System: CHO/HGPRT, Strain/Indicator: CHO-K1-BH4, Metabolic Activation: RAT, LIVER, S-9, AROCLOR 1254, Method: STANDARD PLATE) was “inactive; negative”.
Regarding `COc1c(O)c(OC)c(Cl)c(Cl)c1Cl`, the mutagenic call under setting [7] was “inactive; negative”.
For the compound `Nc1ccn([C@@H]2O[C@H](COP(=O)(O)O)[C@@H](O)[C@H]2O)c(=O)n1`, the mutagenic call (Test System: AMES SALMONELLA TYPHIMURIUM, Strain/Indicator: TA97, Metabolic Activation: NONE, Method: PREINCUBATION) was “inactive; negative”; the mutagenic call (Test System: AMES SALMONELLA TYPHIMURIUM, Strain/Indicator: TA97, Metabolic Activation: RAT, LIVER, S-9, AROCLOR 1254, Method: PREINCUBATION) is “inactive; negative”; the mutagenic call (Test System: AMES SALMONELLA TYPHIMURIUM, Strain/Indicator: TA102, Metabolic Activation: NONE, Method: PREINCUBATION) was “inactive; negative”; the mutagenic call (Test System: AMES SALMONELLA TYPHIMURIUM, Strain/Indicator: TA102, Metabolic Activation: RAT, LIVER, S-9, AROCLOR 1254, Method: PREINCUBATION) is “inactive; negative”.
Take `Cc1c2ccccc2c(C)c2c1c1c(c3ccccc32)N1`: the mutagenic call under setting [8] was “active; positive”.
Regarding `O=C1c2c(O)ccc(O)c2C(=O)C2C(O)=CC=C(O)C12` (stereo not drawn), the mutagenic call by setting is: under setting [1], “inactive; negative”; under setting [2], “inactive; negative”; under setting [3], “inactive; negative”; under setting [4], “inactive; negative”; (Test System: AMES SALMONELLA TYPHIMURIUM, Strain/Indicator: TA1535, Metabolic Activation: NONE, Method: STANDARD PLATE) “inactive; negative”; under setting [5], “inactive; negative”. Besides, the mutagenic call by setting is: (Test System: AMES SALMONELLA TYPHIMURIUM, Strain/Indicator: TA1537, Metabolic Activation: NONE, Method: STANDARD PLATE) “active; positive”; under setting [6], “inactive; negative”.
Take `NCCO`: the mutagenic call was “inactive; negative” (Test System: AMES SALMONELLA TYPHIMURIUM, Strain/Indicator: TA98, Metabolic Activation: HAMSTER, LIVER, S-9, AROCLOR 1254 (10%), Method: PREINCUBATION); “inactive; negative” under setting [8]; “inactive; negative” (Test System: AMES SALMONELLA TYPHIMURIUM, Strain/Indicator: TA98, Metabolic Activation: RAT LIVER S-9, PHENOBARBITAL AND BETA-NAPHTHOFLAVONE, Method: PREINCUBATION); “inactive; negative” (Test System: AMES SALMONELLA TYPHIMURIUM, Strain/Indicator: TA98, Metabolic Activation: RAT, LIVER, S-9, AROCLOR 1254 (10%), Method: PREINCUBATION); “inactive; negative” (Test System: AMES SALMONELLA TYPHIMURIUM, Strain/Indicator: TA100, Metabolic Activation: HAMSTER, LIVER, S-9, AROCLOR 1254 (10%), Method: PREINCUBATION); “inactive; negative” (Test System: AMES SALMONELLA TYPHIMURIUM, Strain/Indicator: TA100, Metabolic Activation: NONE, Method: PREINCUBATION). Moreover, the mutagenic call (Test System: AMES SALMONELLA TYPHIMURIUM, Strain/Indicator: TA100, Metabolic Activation: RAT LIVER S-9, PHENOBARBITAL AND BETA-NAPHTHOFLAVONE, Method: PREINCUBATION) is “inactive; negative”; the mutagenic call (Test System: AMES SALMONELLA TYPHIMURIUM, Strain/Indicator: TA100, Metabolic Activation: RAT, LIVER, S-9, AROCLOR 1254 (10%), Method: PREINCUBATION) is “inactive; negative”; the mutagenic call (Test System: AMES SALMONELLA TYPHIMURIUM, Strain/Indicator: TA1535, Metabolic Activation: HAMSTER, LIVER, S-9, AROCLOR 1254 (10%), Method: PREINCUBATION) is “inactive; negative”; the mutagenic call (Test System: AMES SALMONELLA TYPHIMURIUM, Strain/Indicator: TA1535, Metabolic Activation: NONE, Method: PREINCUBATION) is “inactive; negative”; the mutagenic call (Test System: AMES SALMONELLA TYPHIMURIUM, Strain/Indicator: TA1535, Metabolic Activation: RAT LIVER S-9, PHENOBARBITAL AND BETA-NAPHTHOFLAVONE, Method: PREINCUBATION) is “inactive; negative”; the mutagenic call (Test System: AMES SALMONELLA TYPHIMURIUM, Strain/Indicator: TA1535, Metabolic Activation: RAT, LIVER, S-9, AROCLOR 1254 (10%), Method: PREINCUBATION) was “inactive; negative”. Also, the mutagenic call was “inactive; negative” (Test System: AMES SALMONELLA TYPHIMURIUM, Strain/Indicator: TA1537, Metabolic Activation: HAMSTER, LIVER, S-9, AROCLOR 1254 (10%), Method: PREINCUBATION); “inactive; negative” (Test System: AMES SALMONELLA TYPHIMURIUM, Strain/Indicator: TA1537, Metabolic Activation: NONE, Method: PREINCUBATION); “inactive; negative” (Test System: AMES SALMONELLA TYPHIMURIUM, Strain/Indicator: TA1537, Metabolic Activation: RAT LIVER S-9, PHENOBARBITAL AND BETA-NAPHTHOFLAVONE, Method: PREINCUBATION); “inactive; negative” (Test System: AMES SALMONELLA TYPHIMURIUM, Strain/Indicator: TA1537, Metabolic Activation: RAT, LIVER, S-9, AROCLOR 1254 (10%), Method: PREINCUBATION); “inactive; negative” (Test System: AMES SALMONELLA TYPHIMURIUM, Strain/Indicator: TA1538, Metabolic Activation: NONE, Method: PREINCUBATION); “inactive; negative” (Test System: AMES SALMONELLA TYPHIMURIUM, Strain/Indicator: TA1538, Metabolic Activation: RAT LIVER S-9, PHENOBARBITAL AND BETA-NAPHTHOFLAVONE, Method: PREINCUBATION). Besides, the mutagenic call by setting is: (Test System: E.COLI, Strain/Indicator: WP2UVRA, Metabolic Activation: NONE, Method: PREINCUBATION) “active; positive”; (Test System: E.COLI, Strain/Indicator: WP2UVRA, Metabolic Activation: RAT LIVER S-9, PHENOBARBITAL AND BETA-NAPHTHOFLAVONE, Method: PREINCUBATION) “inactive; negative”.
